Source: patent US20020111274A1, “1-alkyl-3-[1-(substituted phenyl) benzotriazol-6-yl] uracils” (BASF Aktiengesellschaft, priority 2000, published 2002)

How the values were obtained:
Parameters in all cases: scale not given here
[1] = test system: GLXMAW Soybean, Williams; assay: Preemergence herbicidal evaluation, GLXMAW; format: in vivo, Glycine max, (L.) Merr. cv Williams; conditions: preemergence
How it was run: (§1)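 Compound applied preemergence as an aqueous acetone spray onto freshly planted cups, dose equivalent approx. 0.013 to 0.800 kg/ha. Evaluation by rating at weeks 4–5.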

[2] = test system: ZEAMX Corn, Field; assay: Preemergence herbicidal evaluation, ZEAMX; format: in vivo, Zea mays, L. (Sammel-Bezeichnung); conditions: preemergence
How it was run: as §1

[3] = test system: ORYSAT Rice, Tebonnet; assay: Preemergence herbicidal evaluation, ORYSAT; format: in vivo, Oryza sativa, (L.); conditions: preemergence
How it was run: as §1

[4] = test system: CHEAL Lambsquarters, Common; assay: Postemergence herbicidal evaluation, CHEAL; format: in vivo, Chenopodium album, L.; conditions: postemergence spray, rated about two-three weeks after treatment
How it was run: (§2)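 Plants are raised for roughly two weeks, then treated postemergence with compound dispersed in acetone/water (80/20) plus 1.0% seed oil adjuvant, at rates of about 0.006 kg to 0.400 kg per hectare. After greenhouse care, damage is scored two to three weeks later.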

[5] = test system: ORYSAT Rice, Tebonnet; assay: Postemergence herbicidal evaluation, ORYSAT; format: in vivo, Oryza sativa, (L.); conditions: postemergence spray, rated about two-three weeks after treatment
How it was run: as §2

[6] = test system: SETVI Foxtail, Green; assay: Preemergence herbicidal evaluation, SETVI; format: in vivo, Setaria viridis, (L.) Beau; conditions: preemergence
How it was run: as §1

[7] = test system: CHEAL Lambsquarters, Common; assay: Preemergence herbicidal evaluation, CHEAL; format: in vivo, Chenopodium album, L.; conditions: preemergence
How it was run: as §1

[8] = test system: TRZAWR Wheat, Winter, cv Riband; assay: Preemergence herbicidal evaluation, TRZAWR; format: in vivo, Triticum aestivum; conditions: preemergence
How it was run: as §1

[9] = test system: TRZAWR Wheat, Winter, cv Riband; assay: Postemergence herbicidal evaluation, TRZAWR; format: in vivo, Triticum aestivum; conditions: postemergence spray, rated about two-three weeks after treatment
How it was run: as §2

[10] = test system: AMBEL Ragweed, Common; assay: Preemergence herbicidal evaluation, AMBEL; format: in vivo, Ambrosia artemisifolia, L.; conditions: preemergence
How it was run: as §1

[11] = test system: IPOHE Morningglory, Ivyleaf; assay: Postemergence herbicidal evaluation, IPOHE; format: in vivo, Ipomoea hederacea, (L.) Jacq.; conditions: postemergence spray, rated about two-three weeks after treatment
How it was run: as §2

[12] = test system: SETVI Foxtail, Green; assay: Postemergence herbicidal evaluation, SETVI; format: in vivo, Setaria viridis, (L.) Beau; conditions: postemergence spray, rated about two-three weeks after treatment
How it was run: as §2

[13] = test system: GALAP Galium; assay: Preemergence herbicidal evaluation, GALAP; format: in vivo, Galium aparine; conditions: preemergence
How it was run: as §1

[14] = test system: CASOB Sicklepod; assay: Preemergence herbicidal evaluation, CASOB; format: in vivo, Cassia obtusifolia, L.; conditions: preemergence
How it was run: as §1

[15] = test system: CASOB Sicklepod; assay: Postemergence herbicidal evaluation, CASOB; format: in vivo, Cassia obtusifolia, L.; conditions: postemergence spray, rated about two-three weeks after treatment
How it was run: as §2

[16] = test system: IPOHE Morningglory, Ivyleaf; assay: Preemergence herbicidal evaluation, IPOHE; format: in vivo, Ipomoea hederacea, (L.) Jacq.; conditions: preemergence
How it was run: as §1

[17] = test system: ABUTH Velvetleaf; assay: Preemergence herbicidal evaluation, ABUTH; format: in vivo, Abutilon theophrasti, Medic.; conditions: preemergence
How it was run: as §1

[18] = test system: ECHOG Barnyardgrass; assay: Postemergence herbicidal evaluation, ECHOG; format: in vivo, Echinochloa crus-galli, (L.) Beau; conditions: postemergence spray, rated about two-three weeks after treatment
How it was run: as §2

[19] = test system: ZEAMX Corn, Field; assay: Postemergence herbicidal evaluation, ZEAMX; format: in vivo, Zea mays, L. (Sammel-Bezeichnung); conditions: postemergence spray, rated about two-three weeks after treatment
How it was run: as §2

[20] = test system: GLXMAW Soybean, Williams; assay: Postemergence herbicidal evaluation, GLXMAW; format: in vivo, Glycine max, (L.) Merr. cv Williams; conditions: postemergence spray, rated about two-three weeks after treatment
How it was run: as §2

[21] = test system: AMBEL Ragweed, Common; assay: Postemergence herbicidal evaluation, AMBEL; format: in vivo, Ambrosia artemisifolia, L.; conditions: postemergence spray, rated about two-three weeks after treatment
How it was run: as §2

[22] = test system: GALAP Galium; assay: Postemergence herbicidal evaluation, GALAP; format: in vivo, Galium aparine; conditions: postemergence spray, rated about two-three weeks after treatment
How it was run: as §2

[23] = test system: ECHOG Barnyardgrass; assay: Preemergence herbicidal evaluation, ECHOG; format: in vivo, Echinochloa crus-galli, (L.) Beau; conditions: preemergence
How it was run: as §1

[24] = test system: ABUTH Velvetleaf; assay: Postemergence herbicidal evaluation, ABUTH; format: in vivo, Abutilon theophrasti, Medic.; conditions: postemergence spray, rated about two-three weeks after treatment
How it was run: as §2

C#CCOC(=O)COc1ccc(C)c(-n2nnc3cc(F)c(-n4c(=O)cc(C(F)(F)F)n(C)c4=O)cc32)c1 [Example 36]
GLXMAW herbicidal rating ([1]; rate 0.016 kg/ha): 0.0 | GLXMAW herbicidal rating ([1]; rate 0.032 kg/ha): 0.0 | GLXMAW herbicidal rating ([1]; rate 0.062 kg/ha): 0.0 | GLXMAW herbicidal rating ([1]; rate 0.125 kg/ha): 0.0 | ZEAMX herbicidal rating ([2]; rate 0.016 kg/ha): 0.0 | ZEAMX herbicidal rating ([2]; rate 0.032 kg/ha): 0.0 | ZEAMX herbicidal rating ([2]; rate 0.062 kg/ha): 0.0 | ZEAMX herbicidal rating ([2]; rate 0.125 kg/ha): 0.0 | ORYSAT herbicidal rating ([3]; rate 0.016 kg/ha): 0.0 | ORYSAT herbicidal rating ([3]; rate 0.032 kg/ha): 0.0 | ORYSAT herbicidal rating ([3]; rate 0.062 kg/ha): 1.0 | ORYSAT herbicidal rating ([3]; rate 0.125 kg/ha): 1.5 | Postemergence herbicidal rating CHEAL ([4]; 0.008 kg/ha): 0.0 | Postemergence herbicidal rating CHEAL ([4]; 0.016 kg/ha): 0.0 | Postemergence herbicidal rating CHEAL ([4]; 0.032 kg/ha): 2.0 | Postemergence herbicidal rating CHEAL ([4]; 0.062 kg/ha): 4.0 | Postemergence herbicidal rating ORYSAT ([5]; 0.008 kg/ha): 1.5 | Postemergence herbicidal rating ORYSAT ([5]; 0.016 kg/ha): 1.0 | Postemergence herbicidal rating ORYSAT ([5]; 0.032 kg/ha): 2.5 | Postemergence herbicidal rating ORYSAT ([5]; 0.062 kg/ha): 4.0 | SETVI herbicidal rating ([6]; rate 0.016 kg/ha): 0.0 | SETVI herbicidal rating ([6]; rate 0.032 kg/ha): 0.0 | SETVI herbicidal rating ([6]; rate 0.062 kg/ha): 0.0 | SETVI herbicidal rating ([6]; rate 0.125 kg/ha): 3.0 | CHEAL herbicidal rating ([7]; rate 0.016 kg/ha): 0.0 | CHEAL herbicidal rating ([7]; rate 0.032 kg/ha): 6.5 | CHEAL herbicidal rating ([7]; rate 0.062 kg/ha): 9.0 | CHEAL herbicidal rating ([7]; rate 0.125 kg/ha): 9.0 | TRZAWR herbicidal rating ([8]; rate 0.016 kg/ha): 0.0 | TRZAWR herbicidal rating ([8]; rate 0.032 kg/ha): 0.0 | TRZAWR herbicidal rating ([8]; rate 0.062 kg/ha): 0.0 | TRZAWR herbicidal rating ([8]; rate 0.125 kg/ha): 0.0 | Postemergence herbicidal rating TRZAWR ([9]; 0.008 kg/ha): 4.5 | Postemergence herbicidal rating TRZAWR ([9]; 0.016 kg/ha): 5.0 | Postemergence herbicidal rating TRZAWR ([9]; 0.032 kg/ha): 6.0 | Postemergence herbicidal rating TRZAWR ([9]; 0.062 kg/ha): 7.0 | AMBEL herbicidal rating ([10]; rate 0.016 kg/ha): 0.0 | AMBEL herbicidal rating ([10]; rate 0.032 kg/ha): 2.0 | AMBEL herbicidal rating ([10]; rate 0.062 kg/ha): 2.0 | AMBEL herbicidal rating ([10]; rate 0.125 kg/ha): 5.0 | Postemergence herbicidal rating IPOHE ([11]; 0.008 kg/ha): 5.0 | Postemergence herbicidal rating IPOHE ([11]; 0.016 kg/ha): 8.0 | Postemergence herbicidal rating IPOHE ([11]; 0.032 kg/ha): 9.0 | Postemergence herbicidal rating IPOHE ([11]; 0.062 kg/ha): 9.0 | Postemergence herbicidal rating SETVI ([12]; 0.008 kg/ha): 4.0 | Postemergence herbicidal rating SETVI ([12]; 0.016 kg/ha): 4.0 | Postemergence herbicidal rating SETVI ([12]; 0.032 kg/ha): 7.0 | Postemergence herbicidal rating SETVI ([12]; 0.062 kg/ha): 9.0 | GALAP herbicidal rating ([13]; rate 0.016 kg/ha): 0.0 | GALAP herbicidal rating ([13]; rate 0.032 kg/ha): 0.0 | GALAP herbicidal rating ([13]; rate 0.062 kg/ha): 0.0 | GALAP herbicidal rating ([13]; rate 0.125 kg/ha): 0.0 | CASOB herbicidal rating ([14]; rate 0.016 kg/ha): 0.0 | CASOB herbicidal rating ([14]; rate 0.032 kg/ha): 0.0 | CASOB herbicidal rating ([14]; rate 0.062 kg/ha): 0.0 | CASOB herbicidal rating ([14]; rate 0.125 kg/ha): 0.0 | Postemergence herbicidal rating CASOB ([15]; 0.008 kg/ha): 0.0 | Postemergence herbicidal rating CASOB ([15]; 0.016 kg/ha): 0.0 | Postemergence herbicidal rating CASOB ([15]; 0.032 kg/ha): 0.0 | Postemergence herbicidal rating CASOB ([15]; 0.062 kg/ha): 0.0 | IPOHE herbicidal rating ([16]; rate 0.016 kg/ha): 0.0 | IPOHE herbicidal rating ([16]; rate 0.032 kg/ha): 0.0 | IPOHE herbicidal rating ([16]; rate 0.062 kg/ha): 0.0 | IPOHE herbicidal rating ([16]; rate 0.125 kg/ha): 4.0 | ABUTH herbicidal rating ([17]; rate 0.016 kg/ha): 0.0 | ABUTH herbicidal rating ([17]; rate 0.032 kg/ha): 1.5 | ABUTH herbicidal rating ([17]; rate 0.062 kg/ha): 3.0 | ABUTH herbicidal rating ([17]; rate 0.125 kg/ha): 8.0 | Postemergence herbicidal rating ECHCG ([18]; 0.008 kg/ha): 0.0 | Postemergence herbicidal rating ECHCG ([18]; 0.016 kg/ha): 0.0 | Postemergence herbicidal rating ECHCG ([18]; 0.032 kg/ha): 0.0 | Postemergence herbicidal rating ECHCG ([18]; 0.062 kg/ha): 3.0 | Postemergence herbicidal rating ZEAMX ([19]; 0.008 kg/ha): 7.5 | Postemergence herbicidal rating ZEAMX ([19]; 0.016 kg/ha): 7.5 | Postemergence herbicidal rating ZEAMX ([19]; 0.032 kg/ha): 8.0 | Postemergence herbicidal rating ZEAMX ([19]; 0.062 kg/ha): 8.5 | Postemergence herbicidal rating GLXMAW ([20]; 0.008 kg/ha): 3.5 | Postemergence herbicidal rating GLXMAW ([20]; 0.016 kg/ha): 4.0 | Postemergence herbicidal rating GLXMAW ([20]; 0.032 kg/ha): 4.0 | Postemergence herbicidal rating GLXMAW ([20]; 0.062 kg/ha): 4.5 | Postemergence herbicidal rating AMBEL ([21]; 0.008 kg/ha): 2.0 | Postemergence herbicidal rating AMBEL ([21]; 0.016 kg/ha): 4.0 | Postemergence herbicidal rating AMBEL ([21]; 0.032 kg/ha): 5.0 | Postemergence herbicidal rating AMBEL ([21]; 0.062 kg/ha): 5.0 | Postemergence herbicidal rating GALAP ([22]; 0.008 kg/ha): 0.0 | Postemergence herbicidal rating GALAP ([22]; 0.016 kg/ha): 0.0 | Postemergence herbicidal rating GALAP ([22]; 0.032 kg/ha): 2.0 | Postemergence herbicidal rating GALAP ([22]; 0.062 kg/ha): 3.0 | ECHCG herbicidal rating ([23]; rate 0.016 kg/ha): 0.0 | ECHCG herbicidal rating ([23]; rate 0.032 kg/ha): 0.0 | ECHCG herbicidal rating ([23]; rate 0.062 kg/ha): 0.0 | ECHCG herbicidal rating ([23]; rate 0.125 kg/ha): 0.0 | Postemergence herbicidal rating ABUTH ([24]; 0.008 kg/ha): 2.0 | Postemergence herbicidal rating ABUTH ([24]; 0.016 kg/ha): 7.0 | Postemergence herbicidal rating ABUTH ([24]; 0.032 kg/ha): 9.0 | Postemergence herbicidal rating ABUTH ([24]; 0.062 kg/ha): 9.0
